Experimental data as given in paper PMC3466204 (PLoS ONE, 2012).
Where “and” joins values, the source holds several entries; their conditions need not be identical. Equal entries are not always repeated. Ends that are not written are not given here.

What was measured:
C. sakazakii DPC 6440 [1] = assay: Broth MIC, Gram negative; assay type: cell-based, Cronobacter sakazakii; settings: cells washed in 10 mM SPB pH 7.4, 2×10^5 CFU/mL, 2 h RT with peptide, then double strength LB, RT overnight, mean of triplicate assays
Procedure: Minimum inhibitory concentration determinations for Gram negative strains were carried out in triplicate in 96 well microtitre plates. Briefly, bacteria (E. coli, C. sakazakii and Salmonella) grown to mid-logarithmic phase were harvested by centrifugation, washed with 10 mM SPB at pH 7.4, and diluted to 2×10^5 colony-forming units (CFU)/mL in SPB. Nisin and nisin derivative peptides were resuspended in sterile HPLC water and 50 µL aliquots were added to wells containing 50 µL of 2×10^5 CFU of bacteria. Plates were incubated at RT for two hours with agitation. Double strength Luria–Bertani (LB) broth (100 µL) was added and the plates were incubated at RT overnight, the MIC was taken as the lowest concentration at which growth was inhibited.

[2] = system: ST 528 (Methicillin resistant S. aureus); assay: Broth MIC, Gram positive; assay type: cell-based; settings: broth microtitre, BSA pre-treated plates, 10^5 cfu ml^−1, 2-fold dilutions from 2.5 µM, 16 h 37°C, purified peptide, mean of triplicate assays
Procedure: (§1) Minimum inhibitory concentration determinations for Gram positive organisms were carried out in triplicate in microtitre plates (Sarstedt). 96 well microtitre plates were pre-treated with bovine serum albumin (BSA) prior to addition of the peptides. Briefly, to each well of the microtitre plate 200 µL of phosphate buffered saline (PBS) containing 1% (w/v) bovine serum albumin (PBS/BSA) was added and incubated at 37°C for 30 min. The wells were washed with 200 µL PBS and allowed to dry. Target strains were grown overnight in the appropriate conditions and medium, subcultured into fresh broth and allowed to grow to an OD600 of ∼0.5, diluted to a final concentration of 10^5 cfu ml^−1 in a volume of 0.2 ml. Wild type nisin and nisin mutant peptides were adjusted to a 10 µM (S. mitis, B. cereus), 7.5 µM (L. monocytogenes), 5 µM (hVISA) 2.5 µM (MRSA, E. durans), or 500 nM (L. lactis strains) starting concentration and 2-fold serial dilutions of each peptide were added to the target strain.

L. monocytogenes LO28 [3] = assay: Broth MIC, Gram positive; assay type: cell-based; settings: broth microtitre, BSA pre-treated plates, 10^5 cfu ml^−1, 2-fold dilutions from 7.5 µM, 16 h 37°C, purified peptide, mean of triplicate assays
Procedure: as §1

[4] = system: ST 530 (Methicillin resistant S. aureus); assay: Broth MIC, Gram positive; assay type: cell-based; settings: broth microtitre, BSA pre-treated plates, 10^5 cfu ml^−1, 2-fold dilutions from 2.5 µM, 16 h 37°C, purified peptide, mean of triplicate assays
Procedure: as §1

L. lactis HP = assay: Broth MIC, Gram positive; assay type: cell-based; settings: broth microtitre, BSA pre-treated plates, 10^5 cfu ml^−1, 2-fold dilutions from 500 nM, 16 h, purified peptide, mean of triplicate assays
Procedure: as §1

L. lactis MG1363 = assay: Broth MIC, Gram positive; assay type: cell-based; settings: broth microtitre, BSA pre-treated plates, 10^5 cfu ml^−1, 2-fold dilutions from 500 nM, 16 h, purified peptide, mean of triplicate assays
Procedure: as §1

L. monocytogenes 10403S = assay: Broth MIC, Gram positive; assay type: cell-based; settings: broth microtitre, BSA pre-treated plates, 10^5 cfu ml^−1, 2-fold dilutions from 7.5 µM, 16 h 37°C, purified peptide, mean of triplicate assays
Procedure: as §1

[5] = system: hVISA 32679 (heterogenous Vancomycin-intermediate S. aureus); assay: Broth MIC, Gram positive; assay type: cell-based; settings: broth microtitre, BSA pre-treated plates, 10^5 cfu ml^−1, 2-fold dilutions from 5 µM, 16 h 37°C, purified peptide, mean of triplicate assays
Procedure: as §1

S. aureus RF122 [6] = assay: Broth MIC, Gram positive; assay type: cell-based; settings: broth microtitre, BSA pre-treated plates, 10^5 cfu ml^−1, 2-fold dilutions, 16 h 37°C, purified peptide, mean of triplicate assays
Procedure: as §1

L. monocytogenes LO28 [7] = assay: Deferred antagonism assay of producing strains; assay type: cell-based; settings: L. monocytogenes LO28, data not shown
Procedure: (§2) Deferred antagonism assays were performed by replicating strains on GM17 agar plates and allowing them to grow overnight before overlaying with either GM17/BHI/TSB-YE/MH agar (0.75% w/v agar) seeded with the appropriate indicator strain. For higher throughput screening of the S29X bank, deferred antagonism assays were performed by replicating strains using a 96 pin replicator (Boekel) or spotting 5 µl of a fresh overnight culture on GM17 agar plates and allowing them to grow overnight. Following overnight growth the strains were subjected to UV radiation for 30 minutes prior to overlaying with either GM17/BHI/TS/MH agar (0.75% w/v agar) seeded with the appropriate indicator.

S. aureus SA113 = assay: Deferred antagonism assay of producing strains; assay type: cell-based; settings: zone of inhibition around producer colony
Procedure: as §2

S. aureus RF122 [8] = assay: Deferred antagonism assay of producing strains; assay type: cell-based
Procedure: as §2

E. coli 0157-H7 = assay: Agarose gel diffusion assay, purified peptide; assay type: cell-based; settings: purified peptide 60 µM
Procedure: (§3) Agarose-based deferred antagonism assays were carried out as follows: GM17/LB (0.03%) underlay was prepared with 10 mM sodium phosphate buffer (SPB) at pH 7.4 to which was added agarose (1% w/v agarose), autoclaved and cooled to 50°C. Bacteria grown to mid-logarithmic phase were harvested by centrifugation and washed with 10 mM SPB at pH 7.4. Bacteria were then added to 15 mls cooled underlay medium to reach a concentration of 2×10^7 colony-forming units (CFU)/mL. The inoculated medium was rapidly transferred into sterile Petri plates, allowed to solidify and dried. Wells (4.6 mm in diameter) were then made in the seeded plates. 10 µl volumes of cell-free supernatant from overnight nisin derivative producing cultures or resuspended purified peptides were then added to the wells and the plates incubated at 30°C (L. lactis) or 37°C (Gram positive strains) or RT (Gram negative strains) for 3 hours. Polymyxin B (Sigma Aldrich) was used at a concentration of 20 µg/ml. The plates were then overlaid with 15 mls of autoclaved double strength GM17 (L. lactis) or LB (Gram negatives) agarose (1% w/v agarose) overlay medium precooled to 50°C. The plates were then incubated overnight at the relevant temperature.

[9] = system: Salmonella enterica serovar Typhimurium UK1; assay: Agarose gel diffusion assay, purified peptide; assay type: cell-based; settings: purified peptide 60 µM
Procedure: as §3

E. durans 5133 = assay: Broth MIC, Gram positive; assay type: cell-based, Enterococcus durans; settings: broth microtitre, BSA pre-treated plates, 10^5 cfu ml^−1, 2-fold dilutions from 2.5 µM, 16 h 37°C, purified peptide, mean of triplicate assays
Procedure: as §1

C. sakazakii DPC 6440 [10] = assay: Agarose gel diffusion assay, purified peptide; assay type: cell-based, Cronobacter sakazakii; settings: purified peptide 60 µM
Procedure: as §3

“S29G: bioengineered nisin A derivative with a serine to glycine change at position 29 (ITSISLCTPGCKTGALMGCNMKTATCHCGIHVSK; thioether (positions not given here); not fully specified (residues 2, 5, 33, bridges); UniProt P13068 24-57, looked up, variant S29G)” was tested, and the MIC (C. sakazakii DPC 6440 [1]) was 6.28 mg/L and 1.875 µM, the MIC [2] was 0.26 mg/L and 0.078 µM and the MIC (L. monocytogenes LO28 [3]) was 6.28 mg/L and 1.875 µM. The MIC [4] was 0.26 mg/L and 0.078 µM, the MIC (L. lactis HP) was 0.1 mg/L and 0.031 µM and the MIC (L. lactis MG1363) was 0.4 mg/L and 0.125 µM. For the same substance, the MIC (L. monocytogenes 10403S) was 6.28 mg/L and 1.875 µM, the MIC [5] was 2 mg/L and 0.625 µM and the MIC (S. aureus RF122 [6]) was 0.52 mg/L and 0.156 µM. The “Bioactivity of producer relative to nisin A producer” value (L. monocytogenes LO28 [7]) was “comparable to that of nisin A”, the “Bioactivity of producer relative to nisin A producer” value (S. aureus SA113) was “enhanced activity” and the “Bioactivity of producer relative to nisin A producer” value (S. aureus RF122 [8]) was “increases the bioactivity”. For the same substance, the “Zone of inhibition, agarose gel diffusion” value (shortened to “Zone of inhibition”) (E. coli 0157-H7; E. coli 0157-H7, mean of triplicate assays) was 11.10±0.05 mm, the “Zone as % wt” value (E. coli 0157-H7; E. coli 0157-H7, relative to nisin A) was 113 % wt and the “Zone of inhibition” value ([9]; Salmonella Typhimurium UK1, mean of triplicate assays) was 10.94±0.24 mm. For the same substance, the “Zone as % wt” value ([9]; Salmonella Typhimurium UK1, relative to nisin A) was 111 % wt, the MIC (E. durans 5133) was 0.26 mg/L and 0.078 µM and the “Zone of inhibition” value (C. sakazakii DPC 6440 [10]; C. sakazakii DPC 6440, mean of triplicate assays) was 10.79±0.16 mm. The “Zone as % wt” value (C. sakazakii DPC 6440 [10]; C. sakazakii DPC 6440, relative to nisin A) was 110 % wt.
